Patent US20150175599A1, “FAAH Inhibitors” (Ironwood Pharmaceuticals, Inc., priority 2010, published 2015)

Target: T1, human FAAH-1 (Homo sapiens, UniProt O00519)
T1 sequence (O00519 1-579): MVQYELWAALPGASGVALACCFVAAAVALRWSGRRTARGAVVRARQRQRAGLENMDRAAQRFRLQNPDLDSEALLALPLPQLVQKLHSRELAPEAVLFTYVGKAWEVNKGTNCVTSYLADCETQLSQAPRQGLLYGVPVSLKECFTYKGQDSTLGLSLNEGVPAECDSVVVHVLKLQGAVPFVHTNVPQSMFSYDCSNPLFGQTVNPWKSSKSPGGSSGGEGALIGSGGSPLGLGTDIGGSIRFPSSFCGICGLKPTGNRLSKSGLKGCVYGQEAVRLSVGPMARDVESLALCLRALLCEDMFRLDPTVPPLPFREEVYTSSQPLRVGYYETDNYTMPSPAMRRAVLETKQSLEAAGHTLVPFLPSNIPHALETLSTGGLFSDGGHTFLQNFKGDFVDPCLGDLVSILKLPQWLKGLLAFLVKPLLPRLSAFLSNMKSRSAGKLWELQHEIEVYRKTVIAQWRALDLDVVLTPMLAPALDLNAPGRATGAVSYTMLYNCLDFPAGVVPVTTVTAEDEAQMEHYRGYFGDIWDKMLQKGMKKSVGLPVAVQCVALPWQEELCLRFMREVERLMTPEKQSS
Assay: Whole cell anandamide hydrolysis assay (HeLa clone 5c5 transfected with human FAAH-1)
Assay type: cell-based
Details: HeLa clone 5c5 expressing human FAAH-1; read-out: human FAAH whole cell IC50
Experimental: FAAH activity was assayed in whole cells using methods disclosed previously (Maccarone et al., 1998 J Biol. Chem. 273:32332 and Bisogno et al., 1997 J Biol. Chem. 272:3315). In addition to the cell lines described in Maccarone et al. and Bisogno et al., MCF7 (ATCC designation HTB-22) and T84 (ATCC designation CCL-248) cell lines were also used in these assays.
cDNA expression clone for human FAAH-1 (in pcDNA3 vector) (Genbank Accession U82535; obtained from Benjamin Cravatt, Scripps Research Institute, La Jolla, Calif.) was linearized by digestion with BglII (New England Biolabs) and transfected by calcium phosphate into human HeLa cells (ATCC catalog #CCL-2). […] Following transfection, a stable HeLa-derived clone, designated 5c5, was isolated by single colony purification and expanded and maintained in modified Eagles medium (MEM; VWR catalog #45000-300) containing 10% fetal bovine serum (FBS), 2 mM L-glutamine, and 0.5 mg/mL G-418 (Sigma catalog #G5013).
Clone 5c5 (50,000 cells in 150 μL) was seeded into 96-well plates and incubated overnight (5% CO2, 37° C.). Media was carefully replaced with 180 μL DMEM/F12 medium (VWR catalog #45000-350) containing 15 mM HEPES, pH 7.4 and 0.1% fatty acid free BSA (Sigma catalog #A0281). Then, 2 μL of 100× desired final concentrations of certain exemplary compounds described herein were made up in DMSO, added to wells containing cells, and plates were incubated at 37° C. for 10 min. Next, 20 μL of 5 μM anandamide (Cayman catalog #90050) spiked with 8 μCi of anandamide-(ethanolamine-1-[^3H]) (American Radiolabeled Chemicals, Inc., catalog #ART 626) was added to the cells and the plates were incubated for an additional 15 min at 37° C. The reactions were terminated by chilling the plates on ice and adding 20 μL of 0.5M of potassium phosphate buffer (adjusted to pH 2.1 with phosphoric acid).
The acidified reactions were transferred to 96-well filter plates (0.25 mL capacity/well, 1.2 micron glass fiber pre-filter packed above 0.65 micron pore-size PVDF membrane, Millipore catalog MSFCN6B50) containing 25 μL charcoal (neutral activated carbon, Fisher Scientific catalog C170-500) per well. Prior to the assay, charcoal was measured and loaded onto the plate using an aluminum 96-well column loading device (Millipore catalog MACL09625). The filter plate was assembled over an empty 96-well plate (Costar) using a centrifuge alignment frame (Millipore catalog MACF09604) to allow for collection of the filtrate in the receiver plate. The charcoal glass-fiber filter plates were pre-washed with methanol by centrifugation 650×g for 10 min). Next, 80 μL of water was added to the wells of the pre-washed 96 well charcoal filter plate. Then, 90 μL of the acidified reaction mixture was added to the water in the wells of the charcoal plate. The samples were centrifuged as above. The substrate remained bound to the charcoal, whereas the [^3H]-ethanolamine product formed flowed through and was transferred to the microplates containing scintillation cocktail and quantified in a micro-plate scintillation counter (Perkin-Elmer Microbeta). Control reactions with either no cells or cells treated with DMSO alone were performed in triplicate and used to define background (no cells) and 100% activity (DMSO alone).
Following subtraction of background radioactivity, data were expressed as percent inhibition relative to 100% activity and fit with a nonlinear regression curve using GraphPad Prism Software (GraphPad Software Inc). IC50 values were calculated from the resulting dose-response curves constrained at top and bottom to 100% and 0%, respectively.

`COc1cc(NC(=O)C(=O)c2c(C)n(Cc3ccc(Cl)cc3)c3ccc(C(=O)N(C)C)cc23)ccn1` [Compound 6, 1-(4-chlorobenzyl)-3-(2-(2-methoxypyridin-4-ylamino)-2-oxoacetyl)-N,N,2-trimethyl-1H-indole-5-carboxamide] was tested. Which IC50 did it give?
The IC50 was 100 to 1000 nM.

With `COc1cc(NC(=O)C(=O)c2c(C)n(Cc3ccc(Cl)cc3)c3ccc(N(C)C(=O)OC(C)(C)C)cc23)ccn1` [Compound 7, Tert-butyl(1-(4-chlorobenzyl)-3-(2-((2-methoxypyridin-4-yl)amino)-2-oxoacetyl)-2-methyl-1H-indol-5-yl)(methyl)carbamate] as the compound, how does the IC50 read?
The IC50 was 100 to 1000 nM.

Which IC50 does the source give for `COc1ccc2c(c1)c(C(=O)C(=O)Nc1ccnc(OC)c1)c(C)n2Cc1ccncc1` [Compound 16, 2-(5-methoxy-2-methyl-1-(pyridin-4-ylmethyl)-1H-indol-3-yl)-N-(2-methoxypyridin-4-yl)-2-oxoacetamide] here?
The IC50 was < 100 nM.

How did the IC50 turn out when `CCN(CC)c1ccc2c(c1)c(C(=O)C(=O)Nc1ccnc(OC)c1)c(C)n2Cc1ccc(Cl)cc1` [Compound 24, 2-(1-(4-chlorobenzyl)-5-(diethylamino)-2-methyl-1H-indol-3-yl)-N-(2-methoxypyridin-4-yl)-2-oxoacetamide] was run?
Its IC50 is 100 to 1000 nM.

With `CNCc1ccc2c(c1)c(C(=O)C(=O)Nc1ccnc(OC)c1)c(C)n2Cc1ccc(Cl)cc1` [Compound 25, 2-(1-(4-chlorobenzyl)-2-methyl-5-((methylamino)methyl)-1H-indol-3-yl)-N-(2-methoxypyridin-4-yl)-2-oxoacetamide] as the compound, how does the IC50 read?
The IC50 was 100 to 1000 nM.

How did the IC50 turn out when `COc1cc(NC(=O)C(=O)c2c(C)n(Cc3ccc(Cl)cc3)c3ccc(CN(C)C)cc23)ccn1` [Compound 26, 2-(1-(4-chlorobenzyl)-5-((dimethylamino)methyl)-2-methyl-1H-indol-3-yl)-N-(2-methoxypyridin-4-yl)-2-oxoacetamide] was run?
The IC50 was < 100 nM.

How did the IC50 turn out when `C=Cc1ccc2c(c1)c(C(=O)C(=O)Nc1ccnc(OC)c1)c(C)n2Cc1ccc(Cl)cc1` [Compound 27, 2-(1-(4-chlorobenzyl)-2-methyl-5-vinyl-1H-indol-3-yl)-N-(2-methoxypyridin-4-yl)-2-oxoacetamide] was run?
The IC50 was < 100 nM.

Which IC50 does the source give for `COc1cc(NC(=O)C(=O)c2c(C)n(Cc3ccc(Cl)cc3)c3cnccc23)ccn1` [Compound 35, 2-(1-(4-chlorobenzyl)-2-methyl-1H-pyrrolo[2,3-c]pyridin-3-yl)-N-(2-methoxypyridin-4-yl)-2-oxoacetamide] here?
Its IC50 is < 100 nM.

With `COc1ccc2c(c1)c(C(=O)C(=O)Nc1ccnc(OC)c1)c(C)n2Cc1ccc(S(C)(=O)=O)cc1` [Compound 39, 2-(5-methoxy-2-methyl-1-(4-(methylsulfonyl)benzyl)-1H-indol-3-yl)-N-(2-methoxypyridin-4-yl)-2-oxoacetamide] as the compound, how does the IC50 read?
The IC50 was 1000 to 10000 nM.

Which IC50 does the source give for `COc1ccc(Cn2c(C)c(C(=O)C(=O)Nc3ccnc(OC)c3)c3cc(OC)cnc32)nc1` [Compound 40, 2-(5-methoxy-1-((5-methoxypyridin-2-yl)methyl)-2-methyl-1H-pyrrolo[2,3-b]pyridin-3-yl)-N-(2-methoxypyridin-4-yl)-2-oxoacetamide] here?
Its IC50 is < 100 nM.

`COc1ccc2c(c1)c(C(=O)C(=O)Nc1ccnc(O)c1)c(C)n2Cc1ccc(Cl)cc1` [Compound 50, 2-(1-(4-chlorobenzyl)-5-methoxy-2-methyl-1H-indol-3-yl)-N-(2-hydroxypyridin-4-yl)-2-oxoacetamide] was tested. Which IC50 did it give?
Its IC50 is 1000 to 10000 nM.

With `COc1cc(NC(=O)C(=O)c2c(C)n(Cc3ccc(Cl)cc3)c3c(OC)cccc23)ccn1` [Compound 51, 2-(1-(4-chlorobenzyl)-7-methoxy-2-methyl-1H-indol-3-yl)-N-(2-methoxypyridin-4-yl)-2-oxoacetamide] as the compound, how does the IC50 read?
The IC50 was 100 to 1000 nM.

`COc1ccc2c(c1)c(C(=O)C(=O)Nc1ccnc(OC)c1Cl)c(C)n2Cc1ccc(Cl)cc1` [Compound 52, N-(3-chloro-2-methoxypyridin-4-yl)-2-(1-(4-chlorobenzyl)-5-methoxy-2-methyl-1H-indol-3-yl)-2-oxoacetamide] was tested. Which IC50 did it give?
Its IC50 is 100 to 1000 nM.

How did the IC50 turn out when `COc1ccc2c(c1)c(C(=O)C(=O)Nc1ccnc(OC)c1F)c(C)n2Cc1ccc(Cl)cc1` [Compound 53, 2-(1-(4-chlorobenzyl)-5-methoxy-2-methyl-1H-indol-3-yl)-N-(3-fluoro-2-methoxypyridin-4-yl)-2-oxoacetamide] was run?
Its IC50 is < 100 nM.

For `COc1cc(NC(=O)C(=O)c2c(C)n(Cc3ccc(Cl)cc3)c3ccc(OC)c(OC)c23)ccn1` [Compound 56, 2-(1-(4-chlorobenzyl)-4,5-dimethoxy-2-methyl-1H-indol-3-yl)-N-(2-methoxypyridin-4-yl)-2-oxoacetamide], which IC50 is on record?
Its IC50 is 100 to 1000 nM.

Which IC50 does the source give for `COc1cc(NC(=O)C(=O)c2c(C)n(Cc3ccc(Cl)cc3)c3ccc(OC)c(Cl)c23)ccn1` [Compound 58, 2-(4-chloro-1-(4-chlorobenzyl)-5-methoxy-2-methyl-1H-indol-3-yl)-N-(2-methoxypyridin-4-yl)-2-oxoacetamide] here?
Its IC50 is < 100 nM.

With `COc1cc(NC(=O)C(=O)c2c(C)n(Cc3ccc(Cl)cn3)c3ccc([N+](=O)[O-])cc23)ccn1` [Compound 62, 2-(1-((5-chloropyridin-2-yl)methyl)-2-methyl-5-nitro-1H-indol-3-yl)-N-(2-methoxypyridin-4-yl)-2-oxoacetamide] as the compound, how does the IC50 read?
Its IC50 is < 100 nM.

With `COc1cc(NC(=O)C(=O)c2c(C)n(Cc3ccc(Cl)cn3)c3ccc(N)cc23)ccn1` [Compound 65, 2-(5-amino-1-((5-chloropyridin-2-yl)methyl)-2-methyl-1H-indol-3-yl)-N-(2-methoxypyridin-4-yl)-2-oxoacetamide] as the compound, how does the IC50 read?
Its IC50 is < 100 nM.

For `COc1cc(NC(=O)C(=O)c2c(C)n(Cc3ccc(Cl)cc3)c3ccc(N)c(Cl)c23)ccn1` [Compound 73, 2-(5-amino-4-chloro-1-(4-chlorobenzyl)-2-methyl-1H-indol-3-yl)-N-(2-methoxypyridin-4-yl)-2-oxoacetamide], which IC50 is on record?
The IC50 was < 100 nM.

`COc1cc(NC(=O)C(=O)c2c(C)n(Cc3ccc(Cl)cn3)c3cc(C)c(OC)cc23)ccn1` [Compound 95, 2-(1-((5-chloropyridin-2-yl)methyl)-5-methoxy-2,6-dimethyl-1H-indol-3-yl)-N-(2-methoxypyridin-4-yl)-2-oxoacetamide] was tested. Which IC50 did it give?
Its IC50 is < 100 nM.

With `COc1ccc2c(c1)c(C(=O)C(=O)Nc1ccnc(OC)c1)c(C)n2Cc1ncc(Cl)cc1OC` [Compound 100, 2-(1-((5-chloro-3-methoxypyridin-2-yl)methyl)-5-methoxy-2-methyl-1H-indol-3-yl)-N-(2-methoxypyridin-4-yl)-2-oxoacetamide] as the compound, how does the IC50 read?
Its IC50 is < 100 nM.
